# Reference: US20040171045A1, “Assay for predicting cell activity” (IsoTis N.V., priority 2001, published 2004)
# Test system: human bone marrow stromal cells (HBMSC)
# Experiment: Temporal expression of ALP in HBMSC cultures by flow cytometry, (+) dex versus control medium
# Format: cell-based
# Conditions: 10^−8 M dex, average of day 3 to day 9
# Description: The expression of ALP was evaluated by flow cytometry at several culture periods (from day 1 to day 9, three to four measurements were performed for each culture). Briefly, after trypsinisation, cells were washed twice in wash buffer and blocked against non-specific binding (see above). Cells (approx. 0.1-0.3E6/staining) were then resuspended in blocking buffer containing: (a) control mouse anti-human IgG2a (1:5 dilution) and (b) ALP monoclonal antibody (1:10 dilution). After incubation on ice for 45 minutes and washing, antibody reactivity was detected by suspending the cells with blocking buffer containing goat anti-mouse IgGγ-chain-specific-FITC (1:5 dilution). Cells were incubated on ice and in the dark for 30 minutes. After washing, the cells were resuspended in 200 μl of FACS-flow/staining and analyzed using a FACS Calibur apparatus (Becton Dickinson Immunocytometry systems). For each measurement 10,000 events were collected.
smiles,measurement,setting,value
"C[C@@H]1C[C@H]2[C@@H]3CCC4=CC(=O)C=C[C@]4(C)[C@@]3(F)[C@@H](O)C[C@]2(C)[C@@]1(O)C(=O)CO [dex, dexamethasone]",Ratio between the fraction of ALP+ cells in the (+) dex and control conditions,Donor 1 (U00079),1.53
same,Ratio between the fraction of ALP+ cells in the (+) dex and control conditions,Donor 2 (U00084),1.53
same,Ratio between the fraction of ALP+ cells in the (+) dex and control conditions,Donor 3 (U00169),1.40
same,Ratio between the fraction of ALP+ cells in the (+) dex and control conditions,Donor 4 (U00182-2),2.71
same,Ratio between the fraction of ALP+ cells in the (+) dex and control conditions,Donor 5 (U00212),2.53
same,Ratio between the fraction of ALP+ cells in the (+) dex and control conditions,Donor 6 (U00230),1.52
same,Ratio between the fraction of ALP+ cells in the (+) dex and control conditions,Donor 7 (U00106),1.25
same,Ratio between the fraction of ALP+ cells in the (+) dex and control conditions,Donor 8 (U00173),3.72
same,Ratio between the fraction of ALP+ cells in the (+) dex and control conditions,Donor 9 (U00174),1.56
same,Ratio between the fraction of ALP+ cells in the (+) dex and control conditions,Donor 11 (U00179),2.40
same,Ratio between the fraction of ALP+ cells in the (+) dex and control conditions,Donor 12 (U00090),2.56
same,Ratio between the fraction of ALP+ cells in the (+) dex and control conditions,Donor 13 (U00180),1.55
same,Ratio between the fraction of ALP+ cells in the (+) dex and control conditions,Donor 14 (U00091),1.80
